Tested on: patients after acute myocardial infarction
Test: Life quality, Seattle Angina Questionnaire (SAQ), same clinical trial
Type: in vivo, human
Conditions: FAS
Source text: 3508 patients who were in accordance with the diagnostic standards of AMI for 28 days to 2 years and differentiated as Qi deficiency and blood stagnation syndrome by TCM were studied. 0.5 g Chinese medicine composition prepared by the method of EXAMPLE 1 (Coded as QSYQ) was administrated half an hour after meal, 3 times per day.
There were 19 questions in the Seattle angina questionnaire (SAQ), including 5 parts: physical limitation (PL), anginal stability (AS), anginal frequency (AF), treatment satisfaction (TS) and disease perception (DP). After being given necessary explanation by doctors, the questions were answered independently by patients.
They included the overall survival time, angina pectoris score, TCM symptom score and life quality score, where angina pectoris score, TCM symptom score and life quality score were evaluated at randomization, in 1st, 3rd, 6th, 9th, 12th month after treatment and 18th month after follow-up.
All evaluation results of SAQ were described during the period of observation, and Wilcoxon rank sum test was used for inter-group comparison.
The evaluation results in the SAQ were depicted in different observations, and inter-group comparison was tested by Wilcoxon Rank-sum test.

**Q.** CC(=O)Oc1ccccc1C(=O)O [Control group, aspirine] was tested. Which “SAQ Question 1-6: Not limited, patients (%)” value (Baseline) did it give?
**A.** (25.85%)

**Q.** What about the “SAQ Question 1-6: Other reasons, patients (%)” value (Baseline) of the same compound?
**A.** (0.92%)

**Q.** And the “SAQ Question 1-6: Severely limited, patients (%)” value (Baseline)?
**A.** (6.75%)

**Q.** What about the “SAQ Question 1-6: Slightly limited, patients (%)” value (Baseline) of the same compound?
**A.** (27.64%)

**Q.** What about the “SAQ Question 1-7: Mildly limited, patients (%)” value (Baseline) of the same compound?
**A.** (24.74%)

**Q.** What about the “SAQ Question 1-7: Moderately limited, patients (%)” value (Baseline) of the same compound?
**A.** (19.42%)

**Q.** What about the “SAQ Question 1-7: Not limited, patients (%)” value (Baseline) of the same compound?
**A.** (10.64%)

**Q.** And the “SAQ Question 1-7: Other reasons, patients (%)” value (Baseline)?
**A.** (2.81%)

**Q.** What about the “SAQ Question 1-7: Severely limited, patients (%)” value (Baseline) of the same compound?
**A.** (20.94%)

**Q.** What about the “SAQ Question 1-7: Slightly limited, patients (%)” value (Baseline) of the same compound?
**A.** (21.46%)

**Q.** What about the “SAQ Question 1-8: Mildly limited, patients (%)” value (Baseline) of the same compound?
**A.** (23.63%)

**Q.** And the “SAQ Question 1-8: Moderately limited, patients (%)” value (Baseline)?
**A.** (22.57%)

**Q.** And the “SAQ Question 1-8: Not limited, patients (%)” value (Baseline)?
**A.** (8.07%)

**Q.** What about the “SAQ Question 1-8: Other reasons, patients (%)” value (Baseline) of the same compound?
**A.** (2.40%)

**Q.** And the “SAQ Question 1-8: Severely limited, patients (%)” value (Baseline)?
**A.** (25.96%)

**Q.** And the “SAQ Question 1-8: Slightly limited, patients (%)” value (Baseline)?
**A.** (17.37%)

**Q.** And the “8th question: Dissatisfied, patients (%)” value (Follow-up)?
**A.** (0.07%)

**Q.** And the “8th question: Highly satisfied, patients (%)” value (Follow-up)?
**A.** (28.03%)

**Q.** What about the “8th question: Mostly dissatisfied, patients (%)” value (Follow-up) of the same compound?
**A.** (0.62%)

**Q.** And the “8th question: Mostly satisfied, patients (%)” value (Follow-up)?
**A.** (60.61%)

**Q.** And the “8th question: Partly satisfied, patients (%)” value (Follow-up)?
**A.** (10.67%)

**Q.** What about the “9th question: Few, patients (%)” value (Follow-up) of the same compound?
**A.** (44.26%)

**Q.** What about the “9th question: Mild, patients (%)” value (Follow-up) of the same compound?
**A.** (27.29%)

**Q.** And the “9th question: Moderate, patients (%)” value (Follow-up)?
**A.** (3.78%)

**Q.** What about the “9th question: Severe, patients (%)” value (Follow-up) of the same compound?
**A.** (0.14%)

**Q.** And the “9th question: Uneffective, patients (%)” value (Follow-up)?
**A.** (24.54%)

**Q.** And the “10th question: Dissatisfied, patients (%)” value (Follow-up)?
**A.** (18.50%)

**Q.** What about the “10th question: Highly satisfied, patients (%)” value (Follow-up) of the same compound?
**A.** (9.56%)

**Q.** And the “10th question: Mostly dissatisfied, patients (%)” value (Follow-up)?
**A.** (19.05%)

**Q.** And the “10th question: Mostly satisfied, patients (%)” value (Follow-up)?
**A.** (32.12%)

**Q.** What about the “10th question: Partly satisfied, patients (%)” value (Follow-up) of the same compound?
**A.** (20.77%)

**Q.** What about the “11th question: Continuously worried, patients (%)” value (Follow-up) of the same compound?
**A.** (1.38%)

**Q.** And the “11th question: No worried, patients (%)” value (Follow-up)?
**A.** (8.80%)

**Q.** What about the “11th question: Occasionally worried, patients (%)” value (Follow-up) of the same compound?
**A.** (38.93%)

**Q.** And the “11th question: Often worried, patients (%)” value (Follow-up)?
**A.** (6.74%)

**Q.** And the “11th question: Seldom worried, patients (%)” value (Follow-up)?
**A.** (44.15%)

**Q.** What about the “SAQ 4th question, 1-2 times per week: % of patients” value (Follow-up) of the same compound?
**A.** (13.28%)

**Q.** And the “SAQ 4th question, 1-2 times per week: number of patients” value (Follow-up)?
**A.** 192

**Q.** And the “SAQ 4th question, 1-3 times per week: % of patients” value (Follow-up)?
**A.** (2.84%)

**Q.** And the “SAQ 4th question, 1-3 times per week: number of patients” value (Follow-up)?
**A.** 41

**Q.** What about the “SAQ 4th question, <1 time per week: % of patients” value (Follow-up) of the same compound?
**A.** (16.04%)

**Q.** What about the “SAQ 4th question, <1 time per week: number of patients” value (Follow-up) of the same compound?
**A.** 232

**Q.** And the “SAQ 4th question, Not used: % of patients” value (Follow-up)?
**A.** (66.04%)

**Q.** And the “SAQ 4th question, Not used: number of patients” value (Follow-up)?
**A.** 955

**Q.** And the “SAQ 4th question, ≧3 times per week: % of patients” value (Follow-up)?
**A.** (1.80%)

**Q.** What about the “SAQ 4th question, ≧3 times per week: number of patients” value (Follow-up) of the same compound?
**A.** 26

**Q.** What about the “SAQ 4th question, ≧4 times per day: % of patients” value (Follow-up) of the same compound?
**A.** (0.00%)

**Q.** What about the “SAQ 4th question, ≧4 times per day: number of patients” value (Follow-up) of the same compound?
**A.** 0

**Q.** What about the “SAQ 5th question, 1-2 times per week: % of patients” value (Follow-up) of the same compound?
**A.** (32.97%)

**Q.** And the “SAQ 5th question, 1-2 times per week: number of patients” value (Follow-up)?
**A.** 478

**Q.** What about the “SAQ 5th question, 1-3 times per day: % of patients” value (Follow-up) of the same compound?
**A.** (3.17%)

**Q.** And the “SAQ 5th question, 1-3 times per day: number of patients” value (Follow-up)?
**A.** 46

**Q.** What about the “SAQ 5th question, <1 time per week: % of patients” value (Follow-up) of the same compound?
**A.** (31.17%)

**Q.** What about the “SAQ 5th question, <1 time per week: number of patients” value (Follow-up) of the same compound?
**A.** 452

**Q.** What about the “SAQ 5th question, No onset: % of patients” value (Follow-up) of the same compound?
**A.** (7.52%)

**Q.** What about the “SAQ 5th question, No onset: number of patients” value (Follow-up) of the same compound?
**A.** 109

**Q.** What about the “SAQ 5th question, ≧3 times per week: % of patients” value (Follow-up) of the same compound?
**A.** (25.03%)

**Q.** And the “SAQ 5th question, ≧3 times per week: number of patients” value (Follow-up)?
**A.** 363

**Q.** What about the “SAQ 5th question, ≧4 times per day: % of patients” value (Follow-up) of the same compound?
**A.** (0.14%)

**Q.** What about the “SAQ 5th question, ≧4 times per day: number of patients” value (Follow-up) of the same compound?
**A.** 2

**Q.** What about the “SAQ 6th question, Dissatisfied: % of patients” value (Follow-up) of the same compound?
**A.** (0.00%)

**Q.** And the “SAQ 6th question, Dissatisfied: number of patients” value (Follow-up)?
**A.** 0

**Q.** What about the “SAQ 6th question, Highly satisfied: % of patients” value (Follow-up) of the same compound?
**A.** (28.18%)

**Q.** What about the “SAQ 6th question, Highly satisfied: number of patients” value (Follow-up) of the same compound?
**A.** 410

**Q.** What about the “SAQ 6th question, Mostly dissatisfied: % of patients” value (Follow-up) of the same compound?
**A.** (0.62%)

**Q.** And the “SAQ 6th question, Mostly dissatisfied: number of patients” value (Follow-up)?
**A.** 9

**Q.** What about the “SAQ 6th question, Mostly satisfied: % of patients” value (Follow-up) of the same compound?
**A.** (62.75%)

**Q.** What about the “SAQ 6th question, Mostly satisfied: number of patients” value (Follow-up) of the same compound?
**A.** 913

**Q.** And the “SAQ 6th question, Partly satisfied: % of patients” value (Follow-up)?
**A.** (8.45%)

**Q.** And the “SAQ 6th question, Partly satisfied: number of patients” value (Follow-up)?
**A.** 123

**Q.** What about the “SAQ 7th question, Dissatisfied: % of patients” value (Follow-up) of the same compound?
**A.** (0.00%)

**Q.** What about the “SAQ 7th question, Dissatisfied: number of patients” value (Follow-up) of the same compound?
**A.** 0

**Q.** What about the “SAQ 7th question, Highly satisfied: % of patients” value (Follow-up) of the same compound?
**A.** (30.56%)

**Q.** What about the “SAQ 7th question, Highly satisfied: number of patients” value (Follow-up) of the same compound?
**A.** 444

**Q.** And the “SAQ 7th question, Mostly dissatisfied: % of patients” value (Follow-up)?
**A.** (0.28%)

**Q.** And the “SAQ 7th question, Mostly dissatisfied: number of patients” value (Follow-up)?
**A.** 4

**Q.** And the “SAQ 7th question, Mostly satisfied: % of patients” value (Follow-up)?
**A.** (62.49%)
